From patent US6576671B1, “Aminotetralin derivatives for the therapy of cardiovascular diseases” (Chiese Farmaceutici S.p.A., priority 1999, dated 2003)

Assays:
α2 adrenergic receptors = experiment: α2 adrenergic receptor binding, [3H]-rauwolscine, rat cerebral cortex; conditions: rat cerebral cortex; read-out: IC50, 50% inhibition of [3H]-rauwolscine specific binding
Experimental: The affinity of CHF 1024 and CHF 1035 for α2, adrenergic receptors was tested on human platelets and on rat cerebral cortex.
The antagonist [^3H]-rauwolscine was used as marker of the receptor, being its binding reversible, saturable and specific.
Values are expressed as IC50=molar concentration of drug required for 50% inhibition of [^3H]-rauwolscine specific binding.

[1] = tested on: patients suffering from NYHA class II-III congestive heart failure; experiment: Add-on therapy study, 28 days, clinical condition and exercise capacity; type: in vivo, human
Experimental: The effects of CHF 1030 as added therapy have been evaluated in patients suffering from NYHA class II-III congestive heart failure due to mild hypertension, or coronary disease, or chronic cardiomyopathy who were on diuretics or diuretics and an angiotensin-converting enzyme inhibitor.
Recruited patients were randomly assigned to added double-blind treatment with placebo or with three different doses of the study drug (5 mg, 10 mg, 15 mg).
The study therapy was started by patients on day 1 and proceeded until day 28 of the study.
The following parameters have been considered to determine the clinical condition of patients:
The functional response to the treatments has been evaluated by exertional tests, the 6-minute walking test and the 130-meter walking test.
For the evaluation of clinical condition, more than 60 symptoms or signs were evaluated.
For statistical purposes scores from signs and symptoms (as applicable) were summed to form clinical compound scorings (CCSs) of pathophysiological importance in congestive heart failure.

α2-adrenergic receptors = experiment: α2-adrenergic activity in isolated neuronally-stimulated rat vas deferens
[2] = molecular target: peripheral DA2 dopaminergic receptors (Oryctolagus cuniculus, UniProt G1T1Q0); experiment: Peripheral DA2 dopaminergic activity in electrically stimulated rabbit rectococcygeus muscle
Text: The activity of CHF 1024 and CHF 1035 on peripheral DA2 dopaminergic receptors has been tested in the electrically stimulated rabbit rectococcygeus muscle.

[3] = tested on: plasma and tissue esterases; experiment: Transformation into the desesterified form after administration; type: in vivo
[4] = Pharmacological and clinic pharmacological studies of diuresis; conditions: in vivo
anesthetized rats = experiment: In vivo cardiovascular effects in anesthetized rats; parameters: species or system rat
Experimental: Male albino rats (Sprague Dawley, 350-400 g) were anesthetized by sodium pentobarbital (60 mg/kg) and maintained by i.v. infusion (6 mg/h). The trachea was cannulated to facilitate spontaneous respiration and body temperature was maintained at 37 C. Homoiothermic Blanket Control System (Harvard, England).
The right femoral artery was cannulated for arterial blood pressure measurement and left jugular vein or duodenum were cannulated for drug administration. Mean arterial pressure and heart rate were continuously monitored by pressure transducer and medium gain amplifier triggered by the ECG signal, respectively. […]
CHF 1035 was administered intraduodenally (1 mg/kg).
The response to […] was determined in the absence and in the presence of the selective β2-adrenoceptor antagonist ICI 118.551 (0.2 mg/kg i.v.) and the selective DA2-dopaminergic antagonist domperidone (0 3 mg/kg i.v.) both alone and in combination. The antagonists were administered 10 min before the i.d. drug administration.

[5] = tested on: patients with a moderate congestive heart failure (class NYHA II-III); experiment: Randomized double-blind study versus placebo, hemodynamic and neurohumoral parameters; type: in vivo, human
Experimental: In order to investigate the effects of the compound both on the hemodynamic parameters and the neurohumoral pattern, a randomized double-blind study versus placebo was carried out in 18 patients with a moderate congestive heart failure (class NYHA II-III).
Each patient received on 3 consecutive days 2 active doses of CHF 1035 and 1 placebo dose.
The following hemodynamic parameters were evaluated:
pulmonary capillary wedge pressure (PCWP) (mmHg);
cardiac index (CJ) (L/min/m^2);
stroke volume index (SVI) (ml/min/m^2);
systemic vascular resistance (SVR) (dyneseccm^−5);
mean blood pressure (BPm) (mmHg).
The evaluations were carried out by catheterization of the right heart (Swan-Ganz catheter), measuring the hemodynamic parameters of the tested medicament before administration or “pre-dose” (PD) and for the 300 subsequent minutes after the administration or “after-dose” (AD), every 20 minutes for the first 2 hours, then every 60 minutes.
To evaluate the effects of the compound on neurohormones, noradrenaline (NE) (pg/ml) and adrenalin (E) (pg/ml) plasmatic levels were further evaluated, before and 140 minutes after the administration of CHF 1035 and placebo, respectively.

[6] = 5 mg, 140 minutes after administration (AD)
[7] = 5 mg, before administration (PD)
[8] = 10 mg, 140 minutes after administration (AD)
[9] = 10 mg, before administration (PD)
[10] = 15 mg, 140 minutes after administration (AD)
[11] = 15 mg, before administration (PD)

Chain of peripheral DA2 dopaminergic receptors (G1T1Q0 1-443): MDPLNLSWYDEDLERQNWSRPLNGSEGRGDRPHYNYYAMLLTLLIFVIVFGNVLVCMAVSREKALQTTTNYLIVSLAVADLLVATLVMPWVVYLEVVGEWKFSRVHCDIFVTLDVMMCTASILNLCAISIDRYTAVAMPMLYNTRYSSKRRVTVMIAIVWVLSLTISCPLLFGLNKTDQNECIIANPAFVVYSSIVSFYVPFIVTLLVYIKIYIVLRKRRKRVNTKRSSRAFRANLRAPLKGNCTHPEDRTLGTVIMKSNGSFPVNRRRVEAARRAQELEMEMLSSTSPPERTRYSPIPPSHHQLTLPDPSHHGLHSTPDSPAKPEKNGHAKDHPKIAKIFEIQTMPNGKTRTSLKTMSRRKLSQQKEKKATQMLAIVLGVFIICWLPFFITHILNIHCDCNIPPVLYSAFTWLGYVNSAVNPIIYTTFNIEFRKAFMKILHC

## CNC1CCc2c(ccc(OC(=O)C(C)C)c2OC(=O)C(C)C)C1 (stereo not shown) [CHF 1035, 5,6-Diisobutyroyloxy-2-methylaminotetralin]
α2 adrenergic receptors
  IC50: 2650 nM
[1]; 5, 10, 15 mg add-on to diuretics or diuretics and ACE inhibitor, day 1 to 28
  functional and clinical condition of patients, compared to placebo: improved
[1]; patients with congestive heart failure
  duration of pharmacodynamic effects versus serum levels of the drug: last longer than detectable serum levels
α2-adrenergic receptors; isolated neuronally-stimulated rat vas deferens, read-out: IC50, 50% inhibition of the electrically induced contraction
  IC50: 71.4 nM
α2-adrenergic receptors; rat vas deferens
  more potent than dopamine: ~70 times
[2]
  effect in presence of selective DA2-antagonist domperidone: competitively antagonized
  more potent than dopamine: approximately 3 times
[2]; read-out: IC50, 50% inhibition of the electrically induced contraction
  IC50: 29.6 nM
[3]
  transformation by plasma and tissue esterases into the active desesterified form: Immediately after the administration
[4]
  diuresis: increases
  natriuresis and kaliuresis: without affecting
Anesthetized rats; 1 mg/kg i.d., ICI 118.551 0.2 mg/kg i.v. 10 min before
  peak hypotensive effect after pretreatment with the β2-antagonist: significantly reduced
Anesthetized rats; 1 mg/kg i.d., ICI 118.551 and domperidone
  hypotensive response after both antagonists combined: completely abolished
Anesthetized rats; 1 mg/kg i.d., domperidone i.v. 10 min before, hypotensive response significantly shortened
  time to complete recovery of basal value after DA2-antagonist pretreatment: 60 min
Anesthetized rats; 1 mg/kg intraduodenal, 5 min after administration
  hypotensive response, peak effect, reduction from basal value: about 45%
Anesthetized rats; 1 mg/kg intraduodenal, 2 hours after administration
  hypotensive response, reduction from basal value: about 20%
Anesthetized rats; intraduodenal, 1 mg/kg
  blood pressure: markedly reduced
  heart rate: without affecting
[5]; 5 mg
  reduction in the peripheral vascular resistances: −15.4%
[5]; [6]
  adrenalin (E) plasmatic level: 42 pg/mL
  noradrenaline (NE) plasmatic level: 301 pg/mL
[5]; 5 mg, after-dose (AD)
  cardiac index (CI): 3.4 L/min/m^2
  heart rate (HR): 78 bpm
  mean blood pressure (BPm): 82 mmHg
  pulmonary capillary wedge pressure (PCWP): 18 mmHg
  stroke volume index (SVI): 43 ml/min/m^2
  systemic vascular resistance (SVR): 1052 dyneseccm^−5
[5]; [7]
  adrenalin (E) plasmatic level: 56 pg/mL
  noradrenaline (NE) plasmatic level: 299 pg/mL
[5]; 5 mg, pre-dose (PD)
  cardiac index (CI): 3 L/min/m^2
  heart rate (HR): 74 bpm
  mean blood pressure (BPm): 85 mmHg
  pulmonary capillary wedge pressure (PCWP): 22 mmHg
  systemic vascular resistance (SVR): 1243 dyneseccm^−5
[5]; 10 mg
  reduction in the peripheral vascular resistances: −27.0%
[5]; [8]
  adrenalin (E) plasmatic level: 62 pg/mL
  noradrenaline (NE) plasmatic level: 244 pg/mL
[5]; 10 mg, after-dose (AD)
  cardiac index (CI): 3.4 L/min/m^2
  heart rate (HR): 76 bpm
  mean blood pressure (BPm): 77 mmHg
  pulmonary capillary wedge pressure (PCWP): 16 mmHg
  stroke volume index (SVI): 45 ml/min/m^2
  systemic vascular resistance (SVR): 1009 dyneseccm^−5
[5]; [9]
  adrenalin (E) plasmatic level: 65 pg/mL
  noradrenaline (NE) plasmatic level: 285 pg/mL
[5]; 10 mg, pre-dose (PD)
  cardiac index (CI): 2.7 L/min/m^2
  heart rate (HR): 70 bpm
  mean blood pressure (BPm): 85 mmHg
  pulmonary capillary wedge pressure (PCWP): 20 mmHg
  stroke volume index (SVI): 38 ml/min/m^2
  systemic vascular resistance (SVR): 1382 dyneseccm^−5
[5]; 15 mg
  reduction in the peripheral vascular resistances: −35.2%
[5]; [10]
  adrenalin (E) plasmatic level: 58 pg/mL
  noradrenaline (NE) plasmatic level: 308 pg/mL
[5]; 15 mg, after-dose (AD)
  cardiac index (CI): 4 L/min/m^2
  heart rate (HR): 80 bpm
  mean blood pressure (BPm): 79 mmHg
  pulmonary capillary wedge pressure (PCWP): 16 mmHg
  stroke volume index (SVI): 49 ml/min/m^2
  systemic vascular resistance (SVR): 881 dyneseccm^−5
[5]; [11]
  adrenalin (E) plasmatic level: 53 pg/mL
  noradrenaline (NE) plasmatic level: 340 pg/mL
[5]; 15 mg, pre-dose (PD)
  cardiac index (CI): 3 L/min/m^2
  heart rate (HR): 74 bpm
  mean blood pressure (BPm): 87 mmHg
  pulmonary capillary wedge pressure (PCWP): 21 mmHg
  stroke volume index (SVI): 40 ml/min/m^2
  systemic vascular resistance (SVR): 1359 dyneseccm^−5
[5]; 5, 10, 15 mg, only a relative increase
  increase in heart rate: not clinically significant
[5]; during systemic vasodilation
  catecholamines plasmatic levels: without inducing any reflected increase
